Measurements: US7381521B2, “Anti-pathogenic composition useful in blood preservation” (Altachem Pharma Ltd., priority 2001, dated 2008)

test system: erythrocytes in heparinized bovine blood; experiment: In-vitro hemolysis of erythrocytes in heparinized whole blood, absorbance at 413 nm; settings: 1 hour at 37° C.
Description: The effect of the compounds on the in-vitro hemolysis of erythrocytes in heparinized whole blood is monitored by a spectrophotometric method.
Various formulations and concentrations of the test compound are added to heparinized bovine blood and mixed gently in a 1.5 ml microcentrifuge tube. The sample is allowed to incubate for 1 hour at 37° C. At the end of incubation, the samples are removed from the incubator and centrifuged at 2000 rpm for 5 minutes. A 200 μl aliquot of the supernatant is removed from each sample into a 96 well microtiter plate and read at 413 nm. The absorbance of the test sample is compared to the control sample containing phosphate buffered saline, pH 7.2.

Compound	Concentration at which hemolysis is not observed [%]
C[N+](C)(C)CCCCCCCCCC[N+](C)(C)C.[I-].[I-] [Decamethonium Iodide]	0.0125
C[N+](C)(C)CCCCCC[N+](C)(C)C [Hexamethonium Bromide]	0.0125
Tergitol NP-9	0.001
